Patent US20030018027A1 (priority 2001, published 2003)

Columns and labels:
excessive barking [1] = assay: Excessive barking of a Pomeranian with separation anxiety during 30 minutes after every one left the room; assay type: in vivo, dog (Pomeranian)
Description: The following experiment was performed by using an 11 years old Pomeranian (4.5 kg weight) in which a symptom of separation anxiety was confirmed.
The experimental animal was fed in a room which was equipped with an air conditioner keeping 22° C. and were provided with 200 g of canned dog food (Science Diet Maintenance, beef can, Japan Hills Colgate ) twice per day in the morning and in the evening. Water was freely provided. The animals had been habituated in the experimental cages before recording the frequency of excessive barking with a set up video camera. Excessive barking during 30 minutes after every one left the room was recorded for 2 days. The barking frequency on day 1 was 178 times and 203 times on day 2. […] The barking frequency for that recording was 0 (zero).

kainate receptors = conditions: cited from earlier work
excessive barking [2] = assay: Excessive barking of beagles during 5 minutes before feeding after intravenous SKF97541; assay type: in vivo, dog (beagles); conditions: mean and standard error
Description: Two ovariectomized healthy female beagles (10 kg) of 2 years old were used for the following experiments.
(§1) The experiments was performed for seven (7) days as one cycle and the data were recorded, which were repeated for 3 months (12 cycles). The data were statistically processed. The experimental dogs were fed in a room which was equipped with an air conditioner keeping 22° C. During the first 6 days, the animals were fed with 400 g of food (Science Diet Maintenance, dry, Japan Hills Colgate) at 4 o'clock every day. Water was freely provided. The animals were habituated in the experimental cages. The seventh (7th) day in each cycle, the condition was kept except that the indicated amount of SKF97541 ([…] receptor agonist) was intravenously administrated at 2 o'clock P.M. The frequency of barking during 5 minutes before feeding was recorded every day by a video camera. The ratio of the frequency of barking on the day where the animals were received SKF97541 to the mean values of the barking frequency during the first 6 days where the animals were not received SKF97541 is indicated as percentages in Table 1 and FIG. 1.

[3] = General symptom of animals, beagle experiment; assay type: in vivo, dog (beagles); conditions: beagles, intravenous SKF97541
Description: as §1

NCCCC(=O)O [GABA, γ-aminobutyric acid]
barking frequency during 30 minutes after every one left the room (excessive barking [1]; 150 mg powdered GABA mixed with canned dog food, oral, untreated days 178 and 203 times): 0

C=C(C)[C@H]1CN[C@H](C(=O)O)[C@H]1CC(=O)O [kainate]
induction of running activity in rat (kainate receptors): induced

CP(=O)(O)CCCN [SKF97541, 3-aminopropyl(methyl)phosphinic acid]
(frequency of barking on the administrated day) / (frequency of barking on non-administrated days) (excessive barking [2]; amount of administrated SKF97541 0.025 (unit not given)): 118.2 ± 0.0%
(frequency of barking on the administrated day) / (frequency of barking on non-administrated days) (excessive barking [2]; amount of administrated SKF97541 0.05 (unit not given)): 90.2 ± 6.2%
(frequency of barking on the administrated day) / (frequency of barking on non-administrated days) (excessive barking [2]; amount of administrated SKF97541 0.1 (unit not given)): 44.0 ± 1.1%
(frequency of barking on the administrated day) / (frequency of barking on non-administrated days) (excessive barking [2]; amount of administrated SKF97541 0.2 (unit not given)): 8.8 ± 8.8%
(frequency of barking on the administrated day) / (frequency of barking on non-administrated days) (excessive barking [2]; amount of administrated SKF97541 0.5 (unit not given)): 0%
barking frequency during 30 minutes after every one left the room (excessive barking [1]; SKF97541 intravenous 0.05 mg/kg body weight): did not bark
barking frequency during 30 minutes after every one left the room (excessive barking [1]; SKF97541 intravenous 0.1 mg/kg body weight): did not bark
general symptom of animals [3]: no notable point regarding to the general symptom of animals was observed

O=C1N=c2cc([N+](=O)[O-])c([N+](=O)[O-])cc2=NC1=O [DNQX, 6,7-dinitroquinoxaline-2,3-dione]
inhibition of running activity induced by kainate (kainate receptors; rat): inhibited
